# According to PubChem BioAssay AID651816 (Broad Institute, 2012):
# Values joined by “and” are separate entries in the source; they are usually repeats but may differ in a detail not shown here. Identical values can stand only once. Active and inactive are the calls of the source. No rule for the calls is given here.
# Test system: V. cholerae BH1578 luxCDABE luminescence, 6 h
# Assay: V. cholerae BH1578 luminescence activators, luxS cqsA deficient, dose response confirmation, dry powder (AID 651816)
# Conditions: not given
row,Compound,AC40
1,CC(C)c1ccc(CNc2nnnn2C)cc1,3260 nM
2,CCn1nnnc1NCc1ccc(N2CCCCC2)cc1,121 nM
3,CCn1nnnc1NCc1ccc(N2CCCC2)cc1,20.9 nM
4,CC(C)NC(=O)Cc1ccc(-c2ccccc2)cc1,6210 nM
5,Cn1nnnc1NCc1ccc(N2CCCC2)cc1,956 nM
6,CCn1nnnc1CCc1ccc(N2CCCC2)cc1,1680 nM
7,CCCn1nnnc1NCc1ccc(N2CCCC2)cc1,60.8 nM
8,CCC(CC)NC(=O)Cc1ccc(-c2ccccc2)cc1,5370 nM
9,O=C(Cc1ccc(-c2ccccc2)cc1)NC1CCC1,510 nM
10,O=C(Cc1ccc(-c2ccccc2)cc1)NC1CCOCC1,2890 nM
11,CCn1nnnc1NCc1cccc(N2CCCC2)c1,504 nM
12,CCC(C)NC(=O)Cc1ccc(-c2ccccc2)cc1 (stereo not given),4820 nM
13,O=C(Cc1ccc(-c2ccccc2)cc1)NC1CCCC1,409 nM and 756 nM
14,CCCn1nnnc1NCc1ccc(C(C)C)cc1,793 nM
15,CCn1nnnc1NCc1ccc(C(C)C)cc1,89.1 nM and 143 nM
16,CCCCn1nnnc1NCc1ccc(N2CCCC2)cc1,5660 nM

# Test system: not listed separately
# Assay: as above
# Conditions: V. cholerae BH1578 luxCDABE luminescence, 6 h; at 80 µM (top of the series)
row,Compound,activation
1,CCn1nccc1/N=C/c1ccc(N2CCCC2)cc1,0.02% (inactive)
2,CCn1nccc1NCc1ccc(N2CCCC2)cc1,0.056% (inactive)
3,CCn1nnnc1NCc1ccccc1N1CCCC1,-0.011% (inactive)
4,O=C(Cc1cccc(OC(F)(F)F)c1)NC1CCCC1,0.099% (inactive)
5,c1ccc(Cn2nnnc2NCc2ccc(N3CCCC3)cc2)cc1,0.055% (inactive)
6,c1ccc(-n2nnnc2NCc2ccc(N3CCCC3)cc2)cc1,0.051% (inactive)
7,CCn1nnc(NCc2ccc(C)cc2)n1,0.015% (inactive)
8,CCCn1nnnc1NCc1ccccc1Cl,-0.011% (inactive)
9,Fc1ccc(Cn2nnnc2NCc2ccc(N3CCCC3)cc2)cc1,0.053% (inactive)
10,COc1ccc(CC(=O)NC2CCCC2)cc1,0.353% (inactive)
11,O=C(Cc1ccccc1Cl)NC1CCCC1,-0.009% (inactive)
12,CCn1nnnc1NCc1cccc(OC)c1,3.31% (inactive)
13,O=C(Cc1cccc(F)c1)NC1CCCC1,0.665% (inactive)
14,CCn1nnc(CCc2ccc(N3CCCC3)cc2)n1,0.033% (inactive)
15,O=C(Cc1ccc(-c2ccccc2)cc1)NC1CCCCC1,7.99% (inactive)
16,CS(=O)(=O)c1ccc(CC(=O)NC2CCCC2)cc1,-0.008% (inactive)
17,c1ccc(Cn2nnc(NCc3ccc(N4CCCC4)cc3)n2)cc1,0.04% (inactive)
18,Cc1ccccc1CC(=O)NC1CCCC1,0.039% (inactive)
19,O=C(Cc1ccccc1OC(F)(F)F)NC1CCCC1,-0.008% (inactive)
20,Cc1ccc(Cn2nnnc2NCc2ccc(N3CCCC3)cc2)cc1,0.022% (inactive)
21,O=C(Cc1ccccc1F)NC1CCCC1,0.028% (inactive)
22,O=C(NCc1ccc(-c2ccccc2)cc1)C1CCCC1,0.19% (inactive)
23,CCc1ccccc1NCc1ccc(N2CCCC2)cc1,0.047% (inactive)
24,O=C(Cc1ccccc1C(F)(F)F)NC1CCCC1,-0.032% (inactive)
